Experiment: gradient 5% acetonitrile 3 min, to 50% in 2 min, to 85% in 15 min, held 3 min, 100 µL/min
Details: column: Zorbax Extend-C18 2.1 x 50 mm; eluents: water / acetonitrile, 0.1% formic acid
Procedure, shortened: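 Values are retention times taken from adduct peaks that software picked and an analyst inspected. The pure standards were run as mixtures of ~100 molecules on HPLC linked to a quadrupole time-of-flight mass spectrometer, in positive and negative ionization mode. A Zorbax Extend-C18 column (2.1 × 50 mm, 1.8 μm) was used at 100 μL/min with water and acetonitrile, each including 0.1% formic acid.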

Row | RP-LC retention time [s] | SMILES
1 | 781 | COc1ccccc1-c1nnc(-c2ccc(OC)c(S(=O)(=O)N3CCOCC3)c2)o1
2 | 1200 | CSc1ccc(-c2noc(Cn3ncn4nc(-c5ccccc5Cl)cc4c3=O)n2)cc1
3 | 647 | COc1ccc(C(O)CN2CCN(c3ccc(OC)cc3)CC2)cc1 (configuration not stated)
4 | 929 | Cc1nc2cc(-c3noc(-c4ccc(C#N)cc4)n3)ccc2n(C(C)C)c1=O
5 | 937 | COc1ccc(-c2cc3c4nn(CC(=O)N5CCCc6ccccc65)c(=O)n4ccn3n2)cc1
6 | 602 | Cc1nnsc1C(=O)NCC1(O)CCCC1
7 | 778 | Cc1ccc(F)cc1NC(=O)CSc1nc(N2CCCCC2)nc2ccccc12
8 | 832 | CCN1C(=O)c2cccnc2Sc2cc(NC(=O)c3ccc(F)cc3)ccc21
9 | 904 | CC(=O)N1CCc2sc(C(=O)N3CCN(c4cc(C)ccc4C)CC3)cc2C1
10 | 653 | Cc1ncc2c(n1)CCN(C(=O)c1cccc(Cl)c1)C2
11 | 1030 | O=S(=O)(c1cccs1)N1CCc2nc(-c3ccc(F)cc3)ncc2C1
12 | 926 | CCCn1nnc2cc(-c3noc(CN4C(=O)COc5ccccc54)n3)ccc21
13 | 839 | COc1ccc(OC)c(Nc2c(-c3ccccc3)nc3cnccn23)c1
14 | 921 | COc1cccc(NC(=O)C2CCCN(c3nc4ccsc4c(=O)n3-c3cccc(OC)c3)C2)c1 (configuration not stated)
15 | 679 | CN(C)c1nc2cc(C(=O)N3CCCCC3)sc2n1-c1ccccc1
16 | 898 | CC1=C(c2ccc(C)cc2)S(=O)(=O)N=C1N1CCCN(C(=O)c2ccccc2C)CC1
17 | 936 | CCOC(=O)C1CCN(c2nc(-c3ccc(Cl)cc3)nc3ccccc23)CC1
18 | 750 | CCOC(=O)c1ccc(NC(=O)c2cc3c(=O)n(CC(C)C)c4ccccc4n3n2)cc1
19 | 861 | CCc1cccc(NC(=O)Cn2c(C)nc3onc(C)c3c2=O)c1
20 | 1160 | C#CCOc1ccc2c(c1)c(-c1ccc(C(C)C)cc1)nc(=O)n2C(C)C

Row | RP-LC retention time [s] | SMILES
21 | 695 | COc1ccc(C(=O)N2C[C@@H]3C[C@H](NS(=O)(=O)c4ccccc4)[C@H]2C3)cn1
22 | 839 | COc1ccccc1-c1nnc(SCC(=O)N2CCc3ccccc32)o1
23 | 946 | Cc1ccc(C)c(N2CCN(C(=O)c3c(C)sc4ccn(C)c(=O)c34)CC2)c1
24 | 884 | COc1ccc(CN2C(=O)CSc3c(c4ccccc4n3C)C2C(=O)NCCCOC(C)C)cc1 (configuration not stated)
25 | 688 | Cc1ccc(N2CCC(NC(=O)NC(C)C)C2=O)cc1 (configuration not stated)
26 | 936 | CCC(C)NS(=O)(=O)c1ccc(-c2c(C)noc2C)cc1 (configuration not stated)
27 | 886 | Cc1ccc(Nc2nc(C)cc(N3CCN(S(=O)(=O)c4cccc(C(F)(F)F)c4)CC3)n2)cc1
28 | 736 | CCc1nncn1C1CCN(S(=O)(=O)c2ccc(OC)c(Cl)c2)CC1
29 | 663 | O=C(O)c1nnn(-c2ccc(Cl)cc2)c1-c1ccncc1
30 | 750 | CC(=O)N1CCc2cc(N3CC(C(=O)NCc4ccc(C)c(C)c4)CC3=O)ccc21 (configuration not stated)
31 | 787 | Cc1noc(-c2cccc(OC3CN(C(=O)c4ccoc4)C3)c2)n1
32 | 773 | COc1ccc(CCNC(=O)N2CC(c3nc(-c4cccs4)no3)C2)cc1
33 | 854 | CCc1nc(-c2csc(S(=O)(=O)N3CCC(C(=O)NC(C)CC)CC3)c2)no1 (configuration not stated)
34 | 556 | Cn1c(CCNC(=O)c2cn3ccccc3n2)nc2ccccc21
35 | 626 | CCCS(=O)(=O)N1CC[C@@H]2COCCN(Cc3ccccc3)[C@@H]2C1
36 | 779 | Cc1cc(C)nc(SCC(=O)Nc2cccc3ccccc23)n1
37 | 1170 | CCN(CC)S(=O)(=O)c1ccc(Cl)c(-c2nnc(-c3cccc(C)c3)o2)c1
38 | 1270 | Cc1ccc(-c2coc(-c3ccc(NC(=O)c4cccs4)cc3)n2)c(C)c1
39 | 652 | O=C(NCCN1CCOCC1)C1CCCN(c2nccnc2Sc2ccccc2)C1 (configuration not stated)

More lines, now with the values behind:

Row | SMILES | RP-LC retention time [s]
40 | O=C(c1csc(-c2ccc(N3CCSCC3)nc2)n1)N1CCC2(CC1)OCCO2 | 822
41 | O=C(Nc1cccc(Br)c1)C1CC(=O)N(CCc2c[nH]c3ccc(F)cc23)C1 (configuration not stated) | 890
42 | O=C(NCCC1=CCCCC1)C(=O)NCC1OCCCN1S(=O)(=O)c1ccccc1 (configuration not stated) | 911
43 | COc1ccc(Nc2cc(C)nc(N)n2)cc1 | 644
44 | O=C(CSc1nnc2c3cc(-c4ccccc4)nn3ccn12)Nc1ccccc1Br | 908
45 | Cc1ccccc1CNC(=O)CN1CCN(Cc2cccc(Cl)c2)C1=O | 880
46 | CC1=C(c2ccccc2)S(=O)(=O)N=C1N1CCC(NC(=O)CCC(C)C)CC1 | 857
47 | CCCn1cc(C(=O)NCC(=O)OCC)c(S(=O)(=O)N2CCN(c3cccc(Cl)c3)CC2)n1 | 1060
48 | O=C(O)c1ccccc1-c1nc2ccccc2[nH]1 | 537
49 | CCOC(=O)C(C)Sc1nnc(CNC(=O)c2ccc(OC)cc2)n1C1CCCCC1 (configuration not stated) | 805
50 | CCOC(=O)c1ccc(NS(=O)(=O)c2cc3n(c2)CCCNC3=O)cc1 | 1010
51 | COC(=O)c1ccc(Cn2cnc3c(-c4cccc(F)c4)csc3c2=O)o1 | 957
52 | CCOC(=O)C1CCN(c2ncc(S(=O)(=O)c3ccc(Cl)cc3)c(N)n2)CC1 | 1030
53 | CCOc1ccc(-c2csc(Cc3nc(-c4ccccc4C)no3)n2)cc1 | 1310
54 | CC(=O)Nc1nc(-c2ccc(C)cc2C)cs1 | 808
55 | O=C(NCCc1c[nH]c2ccccc12)c1cc2cccnc2n(Cc2ccccc2)c1=O | 1070
56 | COc1ccc(CNC(=O)C2CCCN(c3cnc4nccnc4c3)C2)cc1OC (configuration not stated) | 710
57 | Cc1cc(NC(=O)c2ccc3c(c2)CCCC3)n(C(C)C)n1 | 835
58 | CCCc1noc(-c2ccnc(-n3cnc(C(=O)NC4CCCCCC4)c3)c2)n1 | 1060
59 | Cc1nnsc1C(=O)N1CCC(c2nnc(-c3ccco3)o2)CC1 | 617
60 | O=C(C1CCN(c2ccc(Sc3ccccc3)nn2)CC1)N1CCOCC1 | 647
61 | Cc1sc(NC(=O)C(C)C)nc1-c1ccc2c(c1)NC(=O)CO2 | 750
62 | CCc1ccc(-c2cn3cc(C(=O)NCCN4CCN(C)CC4)ccc3n2)cc1 | 573
63 | COc1nc2ccccc2nc1N1CCCC(C(=O)NCc2ccc(Cl)cc2)C1 (configuration not stated) | 1110
64 | COc1ccc(S(=O)(=O)NCCc2c[nH]c3ccc(F)cc23)cc1 | 866
65 | CCOCCCNC(=O)N1CC(c2nc(C)no2)C2(CCOCC2)C1 (configuration not stated) | 616
66 | COc1ccc(NC(=O)c2csc3c2CCCC3)cc1 | 894
67 | CCOC(=O)c1c2c3c(cccc3n(C)c1=O)C(=O)c1ccccc1-2 | 907
